≈ marks a conversion by molar mass, not a printed value. Calls of active or inactive are those of the source. No cut-off for these calls is given here.
Tests used:
Escherichia coli [1] = experiment: Antibacterial activity against Escherichia coli KAM32 harboring Staphylococcus aureus cloned pSP72 lmrS by broth microdilution method; assay type: functional
Escherichia coli [2] = experiment: Antibacterial activity against Escherichia coli KAM32 harboring pSP72 by broth microdilution method; assay type: functional
Escherichia coli [3] = experiment: Ratio of MIC for Escherichia coli KAM32 harboring cloned pSP72 lmrS to MIC for Escherichia coli KAM32 harboring pSP72; assay type: functional
Escherichia coli [4] = experiment: Inhibition of ethidium bromide accumulation in Escherichia coli KAM32 harboring pSP72 at 100 uM by fluorescence spectrophotometer; assay type: functional, organism-based
Staphylococcus aureus [5] = experiment: Inhibition of Staphylococcus aureus LmrS expressed in Escherichia coli KAM32 harboring pSP72 assessed as decrease of ethidium bromide efflux at 0.01 mM after 6 mins by fluorescence spectrophotometer relative to control
Staphylococcus aureus [6] = experiment: Inhibition of Staphylococcus aureus LmrS expressed in Escherichia coli KAM32 harboring pSP72 assessed as decrease of ethidium bromide accumulation at 100 uM by fluorescence spectrophotometer relative to control
Escherichia coli [7] = experiment: Antibacterial activity against Escherichia coli KAM32 harboring Staphylococcus aureus cloned pSP72 lmrS by broth microdilution method in presence of efflux pump inhibitor CCCP; assay type: functional

| Molecule | MIC (Escherichia coli [1]) | MIC (Escherichia coli [2]) | MIC ratio (Escherichia coli [3]) | inhibition (Escherichia coli [4]) | inhibition (Staphylococcus aureus [5]) | inhibition (Staphylococcus aureus [6]) | MIC (Escherichia coli [7]) |
| --- | --- | --- | --- | --- | --- | --- | --- |
| CC(=O)NC[C@H]1CN(c2ccc(N3CCOCC3)c(F)c2)C(=O)O1 [LINEZOLID] | 31.2 µg/mL (≈ 92.6 µM) | 1.95 µg/mL (≈ 5.78 µM) | 16 |  |  |  |  |
| NC[C@H]1O[C@H](O[C@H]2[C@H](O)[C@@H](O[C@H]3O[C@H](CO)[C@@H](O)[C@H](N)[C@H]3O)[C@H](N)C[C@@H]2N)[C@H](O)[C@@H](O)[C@@H]1O [KANAMYCIN] | 125 µg/mL (≈ 258 µM) | 15.6 µg/mL (≈ 32.3 µM) | 8 |  |  |  |  |
| CCC[C@@H]1C[C@@H](C(=O)N[C@@H]([C@H]2O[C@H](SC)[C@H](O)[C@@H](O)[C@H]2O)[C@@H](C)O)N(C)C1 [LINCOMYCIN] | 125 µg/mL (≈ 307 µM) | 31.2 µg/mL (≈ 76.9 µM) | 4 |  |  |  |  |
| CN(C)[C@@H]1C(O)=C(C(N)=O)C(=O)[C@@]2(O)C(O)=C3C(=O)c4c(O)cccc4[C@@](C)(O)[C@H]3[C@H](O)[C@@H]12 [OXYTETRACYCLINE] | 0.39 µg/mL (≈ 0.847 µM) | 0.1 µg/mL (≈ 0.217 µM) | 4 |  |  |  |  |
| [Cl-].c1ccc([P+](c2ccccc2)(c2ccccc2)c2ccccc2)cc1 [TETRAPHENYLPHOSPHONIUM CHLORIDE] | 156 µg/mL | 9.76 µg/mL | 16 |  |  |  |  |
| O=C(N[C@H](CO)[C@H](O)c1ccc([N+](=O)[O-])cc1)C(Cl)Cl [CHLORAMPHENICOL] | 3.13 µg/mL (≈ 9.69 µM) | 0.39 µg/mL (≈ 1.21 µM) | 8 |  |  |  |  |
| COc1cc(Cc2cnc(N)nc2N)cc(OC)c1OC [TRIMETHOPRIM] | 0.16 µg/mL (≈ 0.551 µM) | 0.02 µg/mL (≈ 0.0689 µM) | 8.2 |  |  |  |  |
| N#CC(C#N)=NNc1cccc(Cl)c1 [CARBONYL CYANIDE M-CHLOROPHENYLHYDRAZONE] |  | 8 µg/mL (≈ 39.1 µM) |  | inactive | 40% |  |  |
| CO[C@H]1/C=C/O[C@@]2(C)Oc3c(C)c(O)c4c(O)c(c(/C=N/N5CCN(C)CC5)c(O)c4c3C2=O)NC(=O)/C(C)=C\C=C\[C@H](C)[C@H](O)[C@@H](C)[C@@H](O)[C@@H](C)[C@H](OC(C)=O)[C@@H]1C [RIFAMPIN] | 3.9 µg/mL (≈ 4.74 µM) | 1.9 µg/mL (≈ 2.31 µM) | 2.1 |  |  |  |  |
| CC[n+]1c(-c2ccccc2)c2cc(N)ccc2c2ccc(N)cc21.[Br-] [HOMIDIUM BROMIDE] | 62.5 µg/mL | 7.8 µg/mL | 8 |  |  | 30% |  |
| COc1cc(NS(=O)(=O)c2ccc(N)cc2)nc(OC)n1 [SULFADIMETHOXINE] | 9.76 µg/mL (≈ 31.4 µM) | 4.88 µg/mL (≈ 15.7 µM) | 2 |  |  |  |  |
| COc1c(N2CCNC(C)C2)c(F)cc2c(=O)c(C(=O)O)cn(C3CC3)c12 (stereo unspecified) [GATIFLOXACIN] | 0.08 µg/mL (≈ 0.213 µM) | 0.02 µg/mL (≈ 0.0533 µM) | 4.1 |  |  |  |  |
| CC[C@H]1OC(=O)[C@H](C)[C@@H](O[C@H]2C[C@@](C)(OC)[C@@H](O)[C@H](C)O2)[C@H](C)[C@@H](O[C@@H]2O[C@H](C)C[C@H](N(C)C)[C@H]2O)[C@](C)(O)C[C@@H](C)C(=O)[C@H](C)[C@@H](O)[C@]1(C)O [ERYTHROMYCIN] | 15.6 µg/mL (≈ 21.3 µM) | 1.9 µg/mL (≈ 2.59 µM) | 8.2 |  |  |  |  |
| CCCCCCCCCCCCOS(=O)(=O)[O-].[Na+] [SODIUM LAURYL SULFATE] | 250 µg/mL | 31.2 µg/mL | 8 |  |  |  |  |
| CS(=O)(=O)c1ccc([C@@H](O)[C@@H](CF)NC(=O)C(Cl)Cl)cc1 [FLORFENICOL] | 3.13 µg/mL (≈ 8.74 µM) | 0.39 µg/mL (≈ 1.09 µM) | 8 |  |  |  |  |
| COC(=O)[C@H]1[C@H]2C[C@@H]3c4[nH]c5cc(OC)ccc5c4CCN3C[C@H]2C[C@@H](OC(=O)c2cc(OC)c(OC)c(OC)c2)[C@@H]1OC [RESERPINE] |  | 62 µg/mL (≈ 102 µM) |  |  |  |  |  |
| CC(=O)O[C@H]1C[C@@]2(C)[C@@H](C[C@@H](O)[C@H]3[C@@]4(C)CC[C@@H](O)[C@@H](C)[C@@H]4CC[C@@]32C)/C1=C(\CCC=C(C)C)C(=O)O [FUSIDIC ACID] | 250 µg/mL (≈ 484 µM) | 31.2 µg/mL (≈ 60.5 µM) | 8 |  |  |  | 62.5 µg/mL |
| CN[C@@H]1[C@H](O[C@H]2[C@H](O[C@H]3[C@H](O)[C@@H](O)[C@H](N=C(N)N)[C@@H](O)[C@@H]3N=C(N)N)O[C@@H](C)[C@]2(O)C=O)O[C@@H](CO)[C@H](O)[C@H]1O [STREPTOMYCIN] | 6.25 µg/mL (≈ 10.7 µM) | 0.78 µg/mL (≈ 1.34 µM) | 8 |  |  |  |  |
| Cetyltrimethylammonium bromide | 7.8 µg/mL | 3.9 µg/mL |  |  |  |  |  |

Source: ChEMBL document CHEMBL1687808, “LmrS is a multidrug efflux pump of the major facilitator superfamily from Staphylococcus aureus” (2010)
